{"source": "patent US9782484B2", "about": "“Method for producing a composite organic compound powder for medical use” (ACTIVUS PHARMA CO., LTD., priority 2008, dated 2017)", "key": {"[1]": {"experiment": "Size distribution of particles in suspension by particle size distribution analyzer (Delsa Nano S)", "assay_type": "physicochemical", "conditions": "starting compound suspended with 0.03% sodium lauryl sulfate", "description": "Fine-pulverizing experiments will now be described in each of which a carboxyvinyl polymer and a lecithin were added. The average particle diameter before and after fine-pulverizing for a powder was measured using a BET type specific surface area analyzer (Macsorb model HM-1201, from Mountech Co., Ltd.). The particle diameter of particles in a suspension was measured using a particle size distribution analyzer (Delsa Nano S, from Beckman Coulter, Inc.). “D50” is the diameter of a particle having an integrated value of 50% as counted in order of decreasing particle size (or in order of increasing particle size) (called “median particle diameter”) in the size distribution. “D90” is the diameter of a particle having an integrated value of 90% as counted in order of increasing particle size (called “90% median diameter”) in the size distribution. “Dv” is the volume average diameter (called “average particle diameter”).\nAn experiment of improving a collection efficiency by addition of a lecithin to fine-pulverized particles will now be described. Unless otherwise stated, the average particle diameter of particles was measured using a BET type specific surface area analyzer (Macsorb model HM-1201, from Mountech Co., Ltd.). The particle diameter of particles in a suspension was measured using a particle size distribution analyzer (Delsa Nano S, from Beckman Coulter, Inc.). “D50” is the diameter of a particle having an integrated value of 50% as counted in order of decreasing particle size (or in order of increasing particle size) (called “median particle diameter”) in the size distribution. “D90” is the diameter of a particle having an integrated value of 90% as counted in order of increasing particle size (called “90% median diameter”) in the size distribution. “Dv” is the volume average diameter (called “average particle diameter”)."}, "[2]": {"experiment": "Average particle diameter of dried powder converted from BET specific surface area", "assay_type": "physicochemical", "conditions": "starting organic compound powder, Table 1 and text", "description": "According to the present invention, the “average particle diameter converted from the BET specific surface area” is calculated by converting a value of the specific surface area measured by the BET flow method (one-point type) to the diameter of a hypothetical spherical particle. The following formula 1 is a conversion formula for converting a value of the specific surface area to the diameter. Here, D is an average particle diameter, ρ is a solid density, S is a specific surface area, and α is a shape factor. α is 6 for spherical particles. D=α/(ρ·S) (formula 1)\nThe BET flow method is preferably a method for measuring the specific surface area by the following procedure. A mixed gas of nitrogen and helium is flowed into a cell in which a sample to be measured is placed, followed by cooling the sample with liquid nitrogen. Then, only nitrogen gas adsorbs to the surface of the sample. Subsequently, when the cell is returned to ordinary temperature, the desorption of the gas occurs. During the desorption of gas, the proportion of nitrogen gas in the mixed gas flowing through one detector becomes larger than the proportion of nitrogen gas flowing through another detector. The difference between signals from these detectors represents the adsorption amount, enabling the measurement of the specific surface area.\nFine-pulverizing experiments are first described in each of which a carboxyvinyl polymer was added. The average particle diameter before and after fine-pulverizing for a dried powder was calculated by converting, by the above-described formula 1, the BET specific surface area measured using a BET type specific surface area analyzer (Macsorb model […], from Mountech Co., Ltd.). The observation of the powder before and after fine-pulverizing was carried out using a scanning electron microscope (model SEM VE-7800, from Keyence Corporation).\nFine-pulverizing experiments will now be described in each of which a carboxyvinyl polymer and a lecithin were added. The average particle diameter before and after fine-pulverizing for a powder was measured using a BET type specific surface area analyzer (Macsorb model HM-1201, from Mountech Co., Ltd.). The particle diameter of particles in a suspension was measured using a particle size distribution analyzer (Delsa Nano S, from Beckman Coulter, Inc.). “D50” is the diameter of a particle having an integrated value of 50% as counted in order of decreasing particle size (or in order of increasing particle size) (called “median particle diameter”) in the size distribution. “D90” is the diameter of a particle having an integrated value of 90% as counted in order of increasing particle size (called “90% median diameter”) in the size distribution. “Dv” is the volume average diameter (called “average particle diameter”). […]"}}}
{"smiles": "Nc1nc2c(ncn2COCCO)c(=O)[nH]1", "note": "[aciclovir]", "values": [{"measurement": "90% median diameter (D90) before fine-pulverizing", "setting": "[1]", "result": "69,371 nm"}, {"measurement": "average particle diameter (Dv) before fine-pulverizing", "setting": "[1]", "result": "60,371 nm"}, {"measurement": "median particle diameter (D50) before fine-pulverizing", "setting": "[1]", "result": "52,997 nm"}]}
{"smiles": "Clc1ccc(COC(Cn2ccnc2)c2ccc(Cl)cc2Cl)c(Cl)c1", "note": "(stereo not shown) [miconazole]", "values": [{"measurement": "Average Particle Diameter before Fine-pulverizing", "setting": "[2]", "result": "10,900 nm"}]}
{"smiles": "CCC(=O)O[C@]1(C(=O)SCF)[C@H](C)C[C@H]2[C@@H]3C[C@H](F)C4=CC(=O)C=C[C@]4(C)[C@@]3(F)[C@@H](O)C[C@@]21C", "note": "[fluticasone propionate]", "values": [{"measurement": "Average Particle Diameter before Fine-pulverizing", "setting": "[2]", "result": "7,850 nm"}]}
{"smiles": "COc1ccc2c(c1)c(CC(=O)O)c(C)n2C(=O)c1ccc(Cl)cc1", "note": "[indomethacin]", "values": [{"measurement": "Average Particle Diameter before Fine-pulverizing", "setting": "[2]", "result": "3,960 nm"}]}
{"smiles": "C[C@@H]1[C@H](O)[C@@H](C)/C=C/C=C/C=C/C=C/C=C/C=C/C=C/[C@H](O[C@@H]2O[C@H](C)[C@@H](O)[C@H](N)[C@@H]2O)C[C@@H]2O[C@](O)(C[C@@H](O)C[C@@H](O)[C@H](O)CC[C@@H](O)C[C@@H](O)CC(=O)O[C@H]1C)C[C@H](O)[C@H]2C(=O)O", "note": "[amphotericin B]", "values": [{"measurement": "90% median diameter (D90) before fine-pulverizing", "setting": "[1]", "result": "15,181 nm"}, {"measurement": "average particle diameter (Dv) before fine-pulverizing", "setting": "[1]", "result": "13,423 nm"}, {"measurement": "median particle diameter (D50) before fine-pulverizing", "setting": "[1]", "result": "11,843 nm"}]}
{"smiles": "O=C(O)Cc1ccc(-c2ccccc2)cc1", "note": "[felbinac]", "values": [{"measurement": "Average Particle Diameter before Fine-pulverizing", "setting": "[2]", "result": "34,000 nm"}]}
